This passage reports EC50 results from US20080221161A1, “HETEROCYCLIC MODULATORS OF TGR5 FOR TREATMENT OF DISEASE” (KALYPSYS, INC., priority 2007, published 2008).

Structures are written as SMILES.

This assay deals with T1, human TGR5 (Homo sapiens, UniProt Q8TDU6).
T1 construct: expressed in transfected cells; host or cells: HEK-293 cells, stably transfected (pcDNA 3.1, Fugene6, geneticin selection)
T1 sequence (Q8TDU6 1-330): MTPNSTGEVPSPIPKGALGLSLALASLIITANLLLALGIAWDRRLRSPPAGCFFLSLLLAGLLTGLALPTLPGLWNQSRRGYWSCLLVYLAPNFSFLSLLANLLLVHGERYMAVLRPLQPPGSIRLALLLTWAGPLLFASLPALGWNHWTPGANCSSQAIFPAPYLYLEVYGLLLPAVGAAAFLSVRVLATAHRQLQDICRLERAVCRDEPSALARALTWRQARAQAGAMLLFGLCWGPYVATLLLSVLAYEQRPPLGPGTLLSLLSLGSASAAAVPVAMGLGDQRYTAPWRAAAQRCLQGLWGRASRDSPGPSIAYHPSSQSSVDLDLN
The assay is described as follows: cAMP production assay in HEK293-TGR5 cells. The format is cell-based. The following applies: HEK293 cells stably expressing human TGR5; 30 minutes stimulation; LANCE cAMP TR-FRET; read-out: cAMP Production in 293-TGR5 Cells EC50. Background: cAMP levels reflect the balance of adenylyl cyclase and phosphodiesterase activity.

In general, EC50 refers to the concentration at which the effect is half-maximal. Consider `COc1ccc2cc(CNCc3ccc(F)c(Cl)c3)c(-c3ccncc3)nc2c1` [Example 92, N-(3-Chloro-4-fluorobenzyl)-1-(7-methoxy-2-(pyridin-4-yl)quinolin-3-yl)methanamine], for which the EC50 is below 10 µM. Then `COc1ccc2cc(CNCCc3c[nH]c4ccc(O)cc34)c(-c3ccncc3)nc2c1` [Example 93, 3-(2-((7-Methoxy-2-(pyridin-4-yl)quinolin-3-yl)methylamino)ethyl)-1H-indol-5-ol], with above 10 µM; and `COc1ccc2cc(CNCc3ccc(C(F)(F)F)cc3)c(Sc3ccncc3)nc2c1` [Example 94, 1-(7-Methoxy-2-(pyridin-4-ylthio)quinolin-3-yl)-N-(4-(trifluoromethyl)benzyl)methanamine], with above 10 µM.

Take `COc1ccc2cc(CNCCc3ccc(Cl)cc3)c(Sc3ccncc3)nc2c1` [Example 95, 2-(4-Chlorophenyl)-N-((7-methoxy-2-(pyridin-4-ylthio)quinolin-3-yl)methyl)ethanamine]: the EC50 was above 10 µM. Then `Oc1ccc2cc(CNCCc3ccc(Br)cc3)c(-c3ccncc3)nc2c1` [Example 96, 3-((4-Bromophenethylamino)methyl)-2-(pyridin-4-yl)quinolin-7-ol], with below 10 µM; and `Oc1ccc2cc(CNCCc3ccc(Br)cc3)c(-c3ccccc3)nc2c1` [Example 100, 3-((4-Bromophenethylamino)methyl)-2-phenylquinolin-7-ol], with below 10 µM; and `Oc1ccc2cc(CNCCc3ccc(Cl)c(Cl)c3)c(-c3ccsc3)nc2c1` [Example 101, 3-((3,4-Dichlorophenethylamino)methyl)-2-(thiophen-3-yl)quinolin-7-ol], with below 10 µM. Then `COc1ccc2cc(CCNCCc3ccc(Br)cc3)c(-c3ccsc3)nc2c1` [Example 102, N-(4-bromophenethyl)-2-(7-methoxy-2-(thiophen-3-yl)quinolin-3-yl)ethanamine], with above 10 µM; and `Oc1ccc2cc(CNCCc3ccc(Br)cc3)c(-c3ccco3)nc2c1` [Example 103, 3-((4-Bromophenethylamino)methyl)-2-(furan-2-yl)quinolin-7-ol], with above 10 µM; and `Oc1ccc2cc(CCNCCc3ccc(Br)cc3)c(-c3ccsc3)nc2c1` [Example 104, 3-(2-(4-Bromophenethylamino)ethyl)-2-(thiophen-3-yl)quinolin-7-ol], with above 10 µM. Then `Oc1ccc2nc(-c3ccsc3)c(CNCCc3ccc(Cl)cc3)cc2c1` [Example 105, 3-((4-Chlorophenethylamino)methyl)-2-(thiophen-3-yl)quinolin-6-ol], with below 10 µM. As to `COc1ccc2cc(CCNCc3ccc(C(F)(F)F)cc3)c(-c3ccsc3)nc2c1` [Example 106, 2-(7-Methoxy-2-(thiophen-3-yl)quinolin-3-yl)-N-(4-(trifluoromethyl)benzyl)ethanamine], the EC50 was above 10 µM. Then `Oc1ccc2cc(CCNCc3ccc(C(F)(F)F)cc3)c(-c3ccsc3)nc2c1` [Example 107, 2-(Thiophen-3-yl)-3-(2-(4-(trifluoromethyl)benzylamino)ethyl)quinolin-7-ol], with above 10 µM; and `Oc1ccc2cc(CNCCc3ccc(Br)cc3)c(-c3cccs3)nc2c1` [Example 108, 3-((4-Bromophenethylamino)methyl)-2-(thiophen-2-yl)quinolin-7-ol], with above 10 µM.

As for `Oc1ccc2cc(CNCCc3ccc(Br)cc3)c(-c3ccoc3)nc2c1` [Example 109, 3-((4-Bromophenethylamino)methyl)-2-(furan-3-yl)quinolin-7-ol], the EC50 is above 10 µM. As to `Oc1ccc2nc(-c3ccsc3)c(CNCc3ccc(C(F)(F)F)cc3)cc2c1` [Example 111, 2-(Thiophen-3-yl)-3-((4-(trifluoromethyl)benzylamino)methyl)quinolin-6-ol], the EC50 is above 10 µM. Then `Sc1ccc2cc(CNCCc3ccc(Br)cc3)c(-c3ccsc3)nc2c1` [Example 114, 3-((4-Bromophenethylamino)methyl)-2-(thiophen-3-yl)quinoline-7-thiol], with below 10 µM; and `COc1ccc2cc(NCc3ccc(C(F)(F)F)cc3)c(-c3ccsc3)nc2c1` [Example 115, 7-Methoxy-2-(thiophen-3-yl)-N-(4-(trifluoromethyl)benzyl)quinolin-3-amine], with above 10 µM. On to `COc1ccc2cc(NCCc3ccc(Br)cc3)c(-c3ccsc3)nc2c1` [Example 116, N-(4-Bromophenethyl)-7-methoxy-2-(thiophen-3-yl)quinolin-3-amine], for which the EC50 is below 10 µM.

Regarding `COc1ccc2cc(CNCCc3ccc(Cl)cc3)c(-c3ccoc3)nc2c1` [Example 117, 2-(4-Chlorophenyl)-N-((2-(furan-3-yl)-7-methoxyquinolin-3-yl)methyl)ethanamine], the EC50 was above 10 µM. Regarding `Oc1ccc2cc(CNCCc3ccc(Cl)cc3)c(-c3ccoc3)nc2c1` [Example 118, 3-((4-Chlorophenethylamino)methyl)-2-(furan-3-yl)quinolin-7-ol], the EC50 was above 10 µM. Then `COc1ccc2cc(CNC(=O)COc3cccc4ncccc34)c(-c3ccsc3)nc2c1` [Example 119, N-((7-Methoxy-2-(thiophen-3-yl)quinolin-3-yl)methyl)-2-(quinolin-5-yloxy)acetamide], with below 10 µM. Then `Cc1c(CNCCc2ccc(Br)cc2)c(-c2ccsc2)nc2cc(O)ccc12` [Example 120, 3-((4-Bromophenethylamino)methyl)-4-methyl-2-(thiophen-3-yl)quinolin-7-ol], with above 10 µM; and `COc1ccc2cc(CNCCOc3cccc4ncccc34)c(-c3ccsc3)nc2c1` [Example 121, N-((7-Methoxy-2-(thiophen-3-yl)quinolin-3-yl)methyl)-2-(quinolin-5-yloxy)ethanamine], with below 10 µM. Then `COc1cc2nc(-c3ccsc3)c(CNCc3ccc(C(F)(F)F)cc3)cc2cc1O` [Example 122, 7-Methoxy-2-(thiophen-3-yl)-3-((4-(trifluoromethyl)benzylamino)methyl)quinolin-6-ol], with above 10 µM; and `COc1cc2cc(CNCCc3ccc(Br)cc3)c(-c3ccsc3)nc2cc1Cl` [Example 123, 2-(4-Bromophenyl)-N-((7-chloro-6-methoxy-2-(thiophen-3-yl)quinolin-3-yl)methyl)ethanamine], with above 10 µM. For `Oc1cc2cc(CNCCc3ccc(Br)cc3)c(-c3ccsc3)nc2cc1Cl` [Example 124, 3-((4-Bromophenethylamino)methyl)-7-chloro-2-(thiophen-3-yl)quinolin-6-ol], the EC50 is above 10 µM.

For the molecule `COc1cc2cc(CNCCc3ccc(Br)cc3)c(-c3ccsc3)nc2cc1F` [Example 125, 2-(4-Bromophenyl)-N-((7-fluoro-6-methoxy-2-(thiophen-3-yl)quinolin-3-yl)methyl)ethanamine], the half-maximal effective concentration (EC50) is above 10 µM. Then `Oc1cc2cc(CNCCc3ccc(Br)cc3)c(-c3ccsc3)nc2cc1F` [Example 126, 3-((4-Bromophenethylamino)methyl)-7-fluoro-2-(thiophen-3-yl)quinolin-6-ol], with below 10 µM; and `O=[N+]([O-])c1ccc2cc(CNCCc3ccc(Br)cc3)c(-c3ccsc3)nc2c1` [Example 127, 2-(4-bromophenyl)-N-((7-nitro-2-(thiophen-3-yl)quinolin-3-yl)methyl)ethanamine], with above 10 µM. Then `Nc1ccc2cc(CNCCc3ccc(Br)cc3)c(-c3ccsc3)nc2c1` [Example 128, 3-((4-Bromophenethylamino)methyl)-2-(thiophen-3-yl)quinolin-7-amine], with above 10 µM; and `COc1ccc2c(C)c(CNCCc3ccc(Br)cc3)c(-c3ccsc3)nc2c1` [Example 129, 2-(4-Bromophenyl)-N-((7-methoxy-4-methyl-2-(thiophen-3-yl)quinolin-3-yl)methyl)ethanamine], with above 10 µM. Then `COc1ccc2cc(CN[C@H](C)c3ccc(Br)cc3)c(-c3ccsc3)nc2c1` [Example 130, (R)-1-(4-Bromophenyl)-N-((7-methoxy-2-(thiophen-3-yl)quinolin-3-yl)methyl)ethanamine], with below 10 µM; and `COc1cc2cc(CNCCc3ccc(Br)cc3)c(-c3ccsc3)nc2cc1C` [Example 131, 2-(4-Bromophenyl)-N-((6-methoxy-7-methyl-2-(thiophen-3-yl)quinolin-3-yl)methyl)ethanamine], with below 10 µM; and `Cc1cc2nc(-c3ccsc3)c(CNCCc3ccc(Br)cc3)cc2cc1O` [Example 132, 3-((4-Bromophenethylamino)methyl)-7-methyl-2-(thiophen-3-yl)quinolin-6-ol], with above 10 µM. With `COc1ccc2cc(CN[C@@H](C)c3ccc(Br)cc3)c(-c3ccsc3)nc2c1` [Example 133, (S)-1-(4-Bromophenyl)-N-((7-methoxy-2-(thiophen-3-yl)quinolin-3-yl)methyl)ethanamine], the EC50 was below 10 µM. Then `C[C@@H](NCc1cc2ccc(O)cc2nc1-c1ccsc1)c1ccc(Br)cc1` [Example 134, (R)-3-((1-(4-Bromophenyl)ethylamino)methyl)-2-(thiophen-3-yl)quinolin-7-ol], with below 10 µM. Then `C[C@H](NCc1cc2ccc(O)cc2nc1-c1ccsc1)c1ccc(Br)cc1` [Example 135, (S)-3-((1-(4-Bromophenyl)ethylamino)methyl)-2-(thiophen-3-yl)quinolin-7-ol], with below 10 µM; and `N#Cc1ccc2cc(CNCCc3ccc(Br)cc3)c(-c3ccsc3)nc2c1` [Example 136, 3-((4-Bromophenethylamino)methyl)-2-(thiophen-3-yl)quinoline-7-carbonitrile], with below 10 µM.
